From paper doi:10.1101/2023.08.10.552651v1 (biorxiv, 2023)

Assays:
Assay in all cases: isothermal titration calorimetry
Format in all cases: binding
Details in all cases: Tris-HCl, 150 mM NaCl, pH 7.9-8.0, 20 °C; 30 µM trimer; one-site model
ScSbtB (SbtB) [1] = target: ScSbtB (SbtB) (Synechocystis sp. PCC 6803, UniProt P73954, R46A)
ScSbtB (SbtB) [2] = target: ScSbtB (SbtB) (Synechocystis sp. PCC 6803, UniProt P73954, K40A)
ScSbtB (SbtB) [3] = target: ScSbtB (SbtB) (Synechocystis sp. PCC 6803, UniProt P73954, R43A)
Sequence of ScSbtB (SbtB) (Synechocystis sp. PCC 6803, UniProt P73954, R43A) (P73954 2-110 R43A): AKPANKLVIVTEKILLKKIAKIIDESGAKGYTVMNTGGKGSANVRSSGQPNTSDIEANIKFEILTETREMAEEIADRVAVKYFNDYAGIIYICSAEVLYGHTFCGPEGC

Sequence of ScSbtB (SbtB) (Synechocystis sp. PCC 6803, UniProt P73954, R46A) (P73954 2-110 R46A): as the sequence (P73954 2-110 R43A) above, with A42R, R45A counted along it
Sequence of ScSbtB (SbtB) (Synechocystis sp. PCC 6803, UniProt P73954, K40A) (P73954 2-110 K40A): as the sequence (P73954 2-110 R43A) above, with K39A, A42R counted along it

| Kd (ScSbtB (SbtB) [1]) | Kd (ScSbtB (SbtB) [2]) | Kd (ScSbtB (SbtB) [3]) | Structure (SMILES) |
| --- | --- | --- | --- |
| 435 µM | 877 µM | 472 µM | Nc1ncnc2c1ncn2[C@@H]1O[C@H](COP(=O)(O)OP(=O)(O)O)[C@@H](O)[C@H]1O [ADP] |
| 94.3 µM | – | – | Nc1ncnc2c1ncn2[C@@H]1O[C@H](COP(=O)(O)O)[C@@H](O)[C@H]1O [AMP] |
| – | 357 µM | 213 µM | Nc1ncnc2c1ncn2[C@@H]1O[C@H](COP(=O)(O)OP(=O)(O)OP(=O)(O)O)[C@@H](O)[C@H]1O [ATP] |
